Measured values as given in paper PMC7722354, “7-Substituted 2-Nitro-5,6-dihydroimidazo[2,1-b][1,3]oxazines: Novel Antitubercular Agents Lead to a New Preclinical Candidate for Visceral Leishmaniasis” (Journal of Medicinal Chemistry, 2017).
pIC50: −log10 of the molar value. Values after ≈ are worked out from the molar mass of the structure shown. Like-named read-outs stand apart in the source and are kept apart here. Marks after values point to notes of the source that are not given here.

Assays:
[1] = design: method as in PMID 26901446; settings: mice, cited from earlier work
L. donovani [2] = tested on: L. donovani; design: method as in PMID 26901446; settings: cited from earlier work
Caco-2 = settings: cited from earlier work
[3] = tested on: Salmonella strains (TA98 and TA100)
From the text: Ames Test. […] Two Salmonella strains (TA98 and TA100) were employed, both in the presence and absence of metabolic activation (rat liver S9). Positive controls (2-aminoanthracene, 2-nitrofluorene, and sodium azide) and a negative (DMSO solvent) control were included.

Leishmania donovani [4] = tested on: Leishmania donovani; design: method as in PMID 26901446; settings: in mouse macrophages; cited from earlier work
[5] = tested on: human lung fibroblasts (MRC-5 cells); design: method as in PMID 26901446; settings: cytotoxicity; cited from earlier work
Trypanosoma cruzi = assay: T. cruzi growth inhibition on MRC-5 cells (LMPH); assay type: cell-based; settings: MRC5
[6] = kinetic aqueous solubility (Method A); assay type: physicochemical
M. tb, strain H37Rv [7] = assay: MABA minimum inhibitory concentration assay (aerobic); assay type: cell-based, Mycobacterium tuberculosis
Leishmania infantum = assay: L. inf growth inhibition in mouse macrophages (LMPH); assay type: cell-based; settings: Macrophage, mean of at least two determinations
mouse pharmacokinetics = assay type: in vivo; settings: mice, oral 40 mg/kg
[8] = tested on: human lung fibroblasts (MRC-5 cells); assay: cytotoxicity toward MRC-5 cells (LMPH); assay type: cell-based; settings: MRC5
L. donovani [9] = assay: acute VL infection assay (L. don mouse model, LSHTM); settings: Leishmania donovani, po, 120 h; 50 mg/kg orally once daily 5 days; liver parasite burden; read-out: in vivo efficacy against L. don (mouse), % inhibition
M. tb, strain H37Rv [10] = assay: LORA minimum inhibitory concentration assay (hypoxic); assay type: cell-based; settings: Mycobacterium tuberculosis
Leishmania donovani [11] = assay: L. don amastigote mouse macrophage-based luciferase assay (CDRI); assay type: cell-based; settings: in mouse macrophages, single test (CDRI)
L. donovani [12] = settings: L. don hamster model, 50 mg/kg, 5 days oral dosing
Method: Groups of hamsters having an appropriate infection grading (5–15 amastigotes/100 spleen cell nuclei) were treated with test compounds, starting on day 17 and dosing orally once per day for 5 days, according to the usual procedure.[10] Post-treatment splenic biopsies taken 12 days after the first dose were employed to determine the intensity of infection, as previously reported.[10]

[13] = water, pH 7, kinetic, water (pH 7), 20 °C, read-out: aq solubility pH 7
[14] = Mycobacterium tuberculosis, H37RV, aerobic, read-out: MIC MABA
[15] = Mycobacterium tuberculosis, H37RV, read-out: MIC MABA, aerobic
[16] = 0.1 M HCl, pH 1, kinetic, 0.1 M HCl (pH 1), 20 °C, read-out: aq solubility pH 1

| SMILES | pIC50 (Trypanosoma cruzi) | MIC (M. tb, strain H37Rv [7]; [14]) | pIC50 (Leishmania infantum) | pIC50 [8] | MIC (M. tb, strain H37Rv [10]) | pIC50 (Leishmania donovani [11]) | further results |
| --- | --- | --- | --- | --- | --- | --- | --- |
| CC1(COc2ccc(OC(F)(F)F)cc2)Cn2cc([N+](=O)[O-])nc2O1 (racemic) [rac-4] | – | – | – | – | – | – | AUClast ([1]; intravenous 1 mg/kg): 1.69 μg·;h/mL; C0 ([1]; intravenous 1 mg/kg): 880 ng/mL; CL ([1]; intravenous 1 mg/kg): 9.5 mL/min/kg; Vdss ([1]; intravenous 1 mg/kg): 1.7 L/kg; t1/2 ([1]; intravenous 1 mg/kg): 2.2 h; AUClast ([1]; oral 25 mg/kg): 33.5 μ·h/mL; Cmax ([1]; oral 25 mg/kg): 4100 ng/mL; F (oral bioavailability) ([1]; oral 25 mg/kg): 79%; Tmax ([1]; oral 25 mg/kg): 4.0 h; % inhibition, L. don mouse model (L. donovani [2]; 6.25 mg/kg po daily for 5 d): 99%; ED50 (L. donovani [2]; L. don mouse model): 3.0 mg/kg |
| C[C@]1(COc2ccc(OC(F)(F)F)cc2)Cn2cc([N+](=O)[O-])nc2O1 [compound 4] | – | – | – | – | – | – | permeability Papp A to B (Caco-2): 22.6 × 10^–6 cm/s; permeability Papp B to A (Caco-2): 24.7 × 10^–6 cm/s; logD (physchem): 3.1; mutagenic effect (Ames test) [3]: no; pIC50 (Leishmania donovani [4]): 7.52; pIC50 [5]: < 4.19 |
| O=[N+]([O-])c1cn2c(n1)OC(COCc1ccc(-c3ccc(OC(F)(F)F)cc3)cc1)CC2 (stereo not shown) [compound 28] | 5.68 | 0.055 µM (≈ 0.0247 µg/mL) | 6.40 | < 4.19 | 1.5 µM (≈ 0.674 µg/mL) | 6.72 | solubility at 15 min ([6]; water, pH 7, kinetic, pH 7, read-out: solubility at pH 7): ~0.058 µg/mL (≈ 0.129 µM); solubility at 15 min [6, 13]: 0.058 µg/mL (≈ 0.129 µM); AUCinf (extrapolated) (mouse pharmacokinetics): 47.1^e μ·h/mL; Cmax (mouse pharmacokinetics): 3300 ng/mL; Tmax (mouse pharmacokinetics): 8.0 h; t1/2 (mouse pharmacokinetics): 5.2 h; inhibition in vivo at 50 mg/kg (L. donovani [9]): 49% |
| O=[N+]([O-])c1cn2c(n1)OC(COc1ccc(-c3ccc(F)cc3)cc1)CC2 (stereo not shown) [compound 49] | – | – | – | – | > 128 µM | 8.00 | % inhibition of parasite infection in the spleen (L. donovani [12]): 51%; MIC (M. tb, strain H37Rv [7]; [15]): 0.18 µM (≈ 0.0665 µg/mL) |
| O=[N+]([O-])c1cn2c(n1)OC(COc1ccc(-c3ccc(F)nc3)cc1)CC2 (stereo not shown) [compound 55, 7-{[4-(6-Fluoropyridin-3-yl)phenoxy]methyl}-2-nitro-6,7-dihydro-5H-imidazo[2,1-b][1,3]oxazine] | 7.57 | 0.24 µM (≈ 0.0889 µg/mL) | 7.08 | < 4.19 | 3.5 µM (≈ 1.3 µg/mL) | < 5.00 | solubility at 15 min [6, 13]: 0.36 µg/mL (≈ 0.972 µM) |
| O=[N+]([O-])c1cn2c(n1)OC(COc1ccc(-c3ccc(F)cc3F)cn1)CC2 (stereo not shown) [compound 62] | 7.52 | 0.1 µM (≈ 0.0388 µg/mL) | 7.43 | < 4.19 | 2.4 µM (≈ 0.932 µg/mL) | 7.15 | solubility at 15 min [6, 16]: 1.5 µg/mL (≈ 3.86 µM); solubility at 15 min [6, 13]: 0.13 µg/mL (≈ 0.335 µM) |
| O=[N+]([O-])c1cn2c(n1)OC(COc1cccc(-c3ccc(F)cc3)n1)CC2 (stereo not shown) [compound 99] | 6.80 | 1.7 µM (≈ 0.63 µg/mL) | 6.85 | 4.23 | 3 µM (≈ 1.11 µg/mL) | 6.51 | solubility at 15 min [6, 16]: 0.56 µg/mL (≈ 1.51 µM); solubility at 15 min [6, 13]: 0.027 µg/mL (≈ 0.0729 µM) |
| CC1(COc2ccc(-c3ccc(F)cn3)cn2)CCn2cc([N+](=O)[O-])nc2O1 (stereo not shown) [compound 106] | 6.60 | 0.4 µM (≈ 0.154 µg/mL) | 6.47 | < 4.19 | 9.5 µM (≈ 3.66 µg/mL) | 6.82 | – |
| O=[N+]([O-])c1cn2c(n1)OC(COc1ccc(-c3ccc(F)nc3F)cn1)CC2 (stereo not shown) [compound 109] | 6.54 | 0.25 µM (≈ 0.0973 µg/mL) | 6.72 | < 4.19 | 4.2 µM (≈ 1.64 µg/mL) | < 5.00 | – |
| O=[N+]([O-])c1cn2c(n1)OC(COc1ccc(-c3ccc(F)nc3F)nc1)CC2 (stereo not shown) [compound 114] | 6.46 | 1.2 µM (≈ 0.467 µg/mL) | 4.28 | < 4.19 | 41 µM (≈ 16 µg/mL) | 7.10 | – |
| CC1(COc2ccc(-c3ccc(F)nc3F)nc2)CCn2cc([N+](=O)[O-])nc2O1 (stereo not shown) [compound 115] | 6.42 | 0.94 µM (≈ 0.379 µg/mL) | 6.55 | < 4.19 | 18 µM (≈ 7.26 µg/mL) | 6.96 | – |
| O=[N+]([O-])c1cn2c(n1)OC(COc1cccc(-c3ccc(F)nc3)n1)CC2 (stereo not shown) [compound 117] | 6.89 | – | 4.36 | 4.46 | > 128 µM | < 5.00 | MIC (M. tb, strain H37Rv [7]; [15]): > 128 µM |
| O=[N+]([O-])c1cn2c(n1)OC(COc1cccc(-c3ccc(F)nc3F)n1)CC2 (stereo not shown) [compound 119] | 6.89 | 4.3 µM (≈ 1.67 µg/mL) | 5.17 | < 4.19 | 10 µM (≈ 3.89 µg/mL) | 6.60 | – |
| O=[N+]([O-])c1cn2c(n1)OC(COc1ccc(-c3ccc(F)cc3)nn1)CC2 (stereo not shown) [compound 123] | 6.17 | 0.35 µM (≈ 0.13 µg/mL) | 5.08 | < 4.19 | 23 µM (≈ 8.54 µg/mL) | 7.15 | – |
| O=[N+]([O-])c1cn2c(n1)OC(COc1cnc(-c3ccc(F)cc3)cn1)CC2 (stereo not shown) [compound 126] | 5.33 | 0.15 µM (≈ 0.0557 µg/mL) | 6.15 | < 4.19 | > 128 µM | 6.82 | – |
| O=[N+]([O-])c1cn2c(n1)OC(COc1ncc(-c3ccc(F)cc3)cn1)CC2 (stereo not shown) [compound 129] | 6.77 | 0.02 to 0.04 µM (≈ 0.00743 to 0.0149 µg/mL) | 6.54 | < 4.19 | 1.7 µM (≈ 0.631 µg/mL) | 7.00 | solubility at 15 min [6, 13]: 1.8 µg/mL (≈ 4.85 µM); MIC (M. tb, strain H37Rv [7]; aerobic, read-out: MIC MABA): 0.04 µM (≈ 0.0149 µg/mL); inhibition in vivo at 50 mg/kg (L. donovani [9]): 85% |
| CC1(COc2ncc(-c3ccc(F)cc3)cn2)CCn2cc([N+](=O)[O-])nc2O1 (stereo not shown) [compound 131] | 6.37 | 0.44 µM (≈ 0.17 µg/mL) | 6.54 | 4.24 | 6.3 µM (≈ 2.43 µg/mL) | 6.49 | – |
| O=[N+]([O-])c1cn2c(n1)OC(COc1ncc(-c3ccc(F)nc3)cn1)CC2 (stereo not shown) [compound 132] | 5.48 | 0.24 µM (≈ 0.0894 µg/mL) | < 4.19 | < 4.19 | 21 µM (≈ 7.82 µg/mL) | 6.28 | – |
| CC1(COc2ncc(-c3ccc(F)nc3)cn2)CCn2cc([N+](=O)[O-])nc2O1 (stereo not shown) [compound 133] | 5.54 | 23 µM (≈ 8.89 µg/mL) | 5.21 | < 4.19 | 54 µM (≈ 20.9 µg/mL) | 5.89 | – |
| O=[N+]([O-])c1cn2c(n1)OC(COc1cnc(-c3ccc(F)cc3)nc1)CC2 (stereo not shown) [compound 139] | 6.59 | 0.27 µM (≈ 0.1 µg/mL) | 6.68 | 4.21 | 20 µM (≈ 7.43 µg/mL) | 7.15 | solubility at 15 min [6, 13]: 0.59 µg/mL (≈ 1.59 µM) |
| CC1(CN2CCN(c3ccc(F)cc3)CC2)CCn2cc([N+](=O)[O-])nc2O1 (stereo not shown) [compound 144] | 5.89 | 0.34 µM (≈ 0.128 µg/mL) | 6.14 | < 4.19 | 6.8 µM (≈ 2.55 µg/mL) | 6.15 | – |
| O=[N+]([O-])c1cn2c(n1)OC(CN1CCC(c3ccc(F)cc3)CC1)CC2 (stereo not shown) [compound 147] | 5.54 | 2.1 µM (≈ 0.757 µg/mL) | 6.06 | < 4.19 | 11 µM (≈ 3.96 µg/mL) | 6.06 | – |
| CC1(CN2CCC(c3ccc(F)cc3)CC2)CCn2cc([N+](=O)[O-])nc2O1 (stereo not shown) [compound 149] | 6.06 | 0.22 µM (≈ 0.0824 µg/mL) | 6.49 | < 4.19 | 8.3 µM (≈ 3.11 µg/mL) | 6.00 | – |
| CC1(CN2CCC(Oc3ccc(F)cc3)CC2)CCn2cc([N+](=O)[O-])nc2O1 (stereo not shown) [compound 154] | 6.23 | 0.23 µM (≈ 0.0898 µg/mL) | 6.49 | < 4.19 | 48 µM (≈ 18.7 µg/mL) | 6.66 | – |
| O=C(c1ccc(F)cc1)N1CCN(CC2CCn3cc([N+](=O)[O-])nc3O2)CC1 (stereo not shown) [compound 157] | 4.96 | 46 µM (≈ 17.9 µg/mL) | 4.35 | < 4.19 | > 128 µM | 5.32 | – |
| CC1(CN2CCN(C(=O)c3ccc(F)cc3)CC2)CCn2cc([N+](=O)[O-])nc2O1 (stereo not shown) [compound 159] | 5.55 | 93 µM (≈ 37.5 µg/mL) | 5.19 | < 4.19 | > 128 µM | 5.55 | – |
| O=C(OCC1CCn2cc([N+](=O)[O-])nc2O1)N1CCN(c2ccc(F)cc2)CC1 (stereo not shown) [compound 160, (2-Nitro-6,7-dihydro-5H-imidazo[2,1-b][1,3]oxazin-7-yl)methyl 4-(4-fluorophenyl)-piperazine-1-carboxylate] | 5.82 | 2.5 µM (≈ 1.01 µg/mL) | < 4.19 | < 4.19 | 22 µM (≈ 8.92 µg/mL) | < 4.00 | – |
| CC1(COC(=O)N2CCN(c3ccc(F)cc3)CC2)CCn2cc([N+](=O)[O-])nc2O1 (stereo not shown) [compound 161] | 5.41 | 3.4 µM (≈ 1.43 µg/mL) | 6.14 | < 4.19 | 8.4 µM (≈ 3.52 µg/mL) | 6.54 | – |
